According to patent US6387947B1, “Antimicrobial cosmetic compositions” (E-L Management Corp., priority 1997, dated 2002):

Key:
Yeast [1] = experiment: microbial challenge of nonionic oil-in-water emulsion, pool 4; assay type: cell-based; details: 0.375% in emulsion
Pseudomonas [2] = experiment: microbial challenge of nonionic oil-in-water emulsion, pool 2; assay type: cell-based; details: 0.375% in emulsion
Pseudomonas [3] = experiment: as above; assay type: cell-based
Description: (§1) A nonionic oil-in-water emulsion is prepared containing 0.473% 3-furan carboxylic acid. The formulation is divided into five portions, each one getting an inoculation at day 0, and a reinoculation after three weeks, of one of the following microbial cultures: (1)Enterics; (2) Pseudomonas; (3)Staphylococcus; (4)Yeast; and (5)Mold. The concentration of microbes in each individual formulation is calculated on the day of the inoculation, and then again calculated on day 2, and at the end of one, two, three (pre-reinoculation) and four weeks, at a variety of pH values. These are also compared with formulations containing 2-furan carboxylic acid and an identical series of microbes, and an acid pH control emulsion without a furan carboxylic acid added. All numbers, other than those listed as “<10”, are log base 10; thus, for example, “6.6” is equivalent to the presence of […] bacteria. Entries of <10 indicate less than 10 colony forming units, the lowest level of detection.

Staphylococcus = experiment: microbial challenge of nonionic oil-in-water emulsion, pool 3; assay type: cell-based; details: for concentration of microbes: 0.375% in emulsion
Description: The formulation is divided into five portions, each one getting an inoculation at day 0, and a reinoculation after three weeks, of one of the following microbial cultures: (1)Enterics; (2) Pseudomonas; (3)Staphylococcus; (4)Yeast; and (5)Mold. The concentration of microbes in each individual formulation is calculated on the day of the inoculation, and then again calculated on day 2, and at the end of one, two, three (pre-reinoculation) and four weeks, at a variety of pH values. These are also compared with formulations containing 2-furan carboxylic acid and an identical series of microbes, and an acid pH control emulsion without a furan carboxylic acid added. All numbers, other than those listed as “<10”, are log base 10; thus, for example, “6.6” is equivalent to the presence of […] bacteria. Entries of <10 indicate less than 10 colony forming units, the lowest level of detection.

[4] = antiirritant effect against Balsam of Peru on ventral forearms of volunteers; assay type: in vivo, human; details: 0.1% in hydroalcohol 1:1, applied twenty minutes before Balsam of Peru; Minolta Chromameter; seven volunteers
Description: Seven volunteers with a history of skin sensitivity to Balsam of Peru are chosen for the study.
The test compounds are applied to the ventral forearms of panelists. The material is allowed to absorb for twenty minutes and then Balsam of Peru, an irritant is applied on the test sites. Skin irritation is measured in terms of increase in skin redness. The degree of redness is measured with a Minolta Chromameter and compared with the controls, the positive control being skin treated with Balsam of Peru alone, and the negative control being a skin site treated with 10% cola solution(a known antiirritant), and challenged like the test products.

mycobacteria = details: U.S. Pat. No. 5,387,605; cited from earlier work
[5] = tested on: lymphocyte adhesion to endothelial cells; experiment: inhibition of lymphocyte adhesion to endothelial cells; assay type: cell-based, human
Description: Endothelial cells are grown to confluence and washed thoroughly with basal media prior to the experiment to remove all fetal calf serum. The test compounds are then added to the endothelial culture well and incubated for 2 hours. IL-1β is added to stimulated expression of adhesion molecules on the endothelial cells before lymphocytes are added. Lymphocytes are isolated from blood collected from adult human subjects and added to the endothelial culture wells. PHA is added to stimulate adhesion molecule expression in the lymphocytes and the cultures incubated overnight. After a brief washing procedure, cells are incubated with Rose Bengal, and the number of adherent cells assessed by measuring the absorbance at 570 nm.

[6] = tested on: PLA2 enzyme obtained from snake venom; details: assay concentrations 0.01, 0.1 and 1 mg/ml
Description: The enzyme reaction is accomplished in a cuvette containing […] of phosphate buffered saline. Fluorometric substrate NBD-C6-HPC is solubilized 1 mM in EtOH, and is diluted in the reaction mixture to yield a 10 μM final concentration. The assay is initiated with the addition of 0.001 units per μl of PLA2 enzyme obtained from snake venom. Enzyme activity is monitored either with or without the presence of potential inhibitors. […] Prior to enzyme addition, samples are measured fluorometrically at excitation 470 and emission 570 to determine background level of fluorescensce. Following enzyme addition, samples are monitored every 15 minutes over a 60 minute period.

Enterics [7] = experiment: microbial challenge of nonionic oil-in-water emulsion, pool 1; assay type: cell-based; details: 0.375% in emulsion
Mold = experiment: microbial challenge of nonionic oil-in-water emulsion, pool 5; assay type: cell-based; details: for concentration of microbes: 0.375% in emulsion
Description: as §1

Enterics [8] = experiment: microbial challenge of nonionic oil-in-water emulsion, pool 1; assay type: cell-based
Description: as §1

Yeast [9] = experiment: microbial challenge of nonionic oil-in-water emulsion, pool 4; assay type: cell-based; details: for concentration of microbes: 0.375% in emulsion
Description: as §1

O=C(O)c1ccco1 [2-furan carboxylic acid]
concentration of microbes (Yeast [1]; pH 3.0, Week 2): <10 colony forming units | concentration of microbes (Yeast [1]; pH 4.0, Week 1): 3.7 log base 10 | concentration of microbes (Yeast [1]; pH 5.0, Week 2): >5.7 log base 10 | concentration of microbes (Yeast [1]; pH 5.0, Week 3): >5.7 log base 10 | concentration of microbes (Pseudomonas [2]; pH 3.0, Week 1): <10 colony forming units | concentration of microbes (Pseudomonas [2]; pH 3.0, Week 3): <10 colony forming units | concentration of microbes (Pseudomonas [2]; pH 3.0, Week 4): <10 colony forming units | concentration of microbes (Pseudomonas [2]; pH 4.0, Day 2): <10 colony forming units | concentration of microbes (Pseudomonas [2]; pH 4.0, Week 3): <10 colony forming units | concentration of microbes (Pseudomonas [2]; pH 4.0, Week 4): <10 colony forming units | concentration of microbes (Pseudomonas [2]; pH 5.0, Day 2): >6 log base 10 | concentration of microbes (Pseudomonas [2]; pH 5.0, Week 2): <10 colony forming units | concentration of microbes (Pseudomonas [2]; pH 5.0, Week 3): <10 colony forming units | antimicrobial activity against Pseudomonas, in words (Pseudomonas [3]): does exhibit inhibition | antimicrobial activity against Staphylococcus, in words (Staphylococcus): does exhibit inhibition | concentration of microbes (Staphylococcus; pH 3.0, Day 0): 6.3 log base 10 | concentration of microbes (Staphylococcus; pH 3.0, Day 2): <10 colony forming units | concentration of microbes (Staphylococcus; pH 3.0, Week 1): <10 colony forming units | concentration of microbes (Staphylococcus; pH 3.0, Week 2): <10 colony forming units | concentration of microbes (Staphylococcus; pH 3.0, Week 3): <10 colony forming units | concentration of microbes (Staphylococcus; pH 3.0, Week 4): <10 colony forming units | concentration of microbes (Staphylococcus; pH 4.0, Day 0): 6.3 log base 10 | concentration of microbes (Staphylococcus; pH 4.0, Day 2): <10 colony forming units | concentration of microbes (Staphylococcus; pH 4.0, Week 1): <10 colony forming units | concentration of microbes (Staphylococcus; pH 4.0, Week 2): <10 colony forming units | concentration of microbes (Staphylococcus; pH 4.0, Week 3): <10 colony forming units | concentration of microbes (Staphylococcus; pH 4.0, Week 4): <10 colony forming units | concentration of microbes (Staphylococcus; pH 5.0, Day 0): 6.3 log base 10 | concentration of microbes (Staphylococcus; pH 5.0, Day 2): 2.9 log base 10 | concentration of microbes (Staphylococcus; pH 5.0, Week 1): <10 colony forming units | concentration of microbes (Staphylococcus; pH 5.0, Week 2): <10 colony forming units | concentration of microbes (Staphylococcus; pH 5.0, Week 3): <10 colony forming units | concentration of microbes (Staphylococcus; pH 5.0, Week 4): <10 colony forming units | effectiveness in preventing the onset of irritation (reduction of skin redness) [4]: 49% | antimicrobial activity against mycobacteria, in words (mycobacteria): particularly effective | inhibition of adhesion of polymorphonuclear leukocytes (PMNs) to activated endothelial cells, in words [5]: ability to inhibit the adhesion | inhibition of lymphocyte adhesion, in words (absorbance at 570 nm, Rose Bengal) ([5]; concentrations of 0.5% and 1%, IL-1β and PHA stimulated): very potent inhibitors of lymphocyte adhesion | PLA2 inhibition, in words [6]: capable of inhibiting the activity | EC-50 of PLA2 inhibition ([6]; calculated from linear fit): 0.5 mg/mL | concentration of microbes (Enterics [7]; pH 3.0, Day 0): 6.6 log base 10 | concentration of microbes (Enterics [7]; pH 3.0, Week 1): <10 colony forming units | concentration of microbes (Enterics [7]; pH 3.0, Week 2): <10 colony forming units | concentration of microbes (Enterics [7]; pH 3.0, Week 3): <10 colony forming units | concentration of microbes (Enterics [7]; pH 3.0, Week 4): <10 colony forming units | concentration of microbes (Enterics [7]; pH 4.0, Day 0): 6.6 log base 10 | concentration of microbes (Enterics [7]; pH 4.0, Week 1): <10 colony forming units | concentration of microbes (Enterics [7]; pH 4.0, Week 4): <10 colony forming units | concentration of microbes (Enterics [7]; pH 5.0, Day 0): 6.6 log base 10 | concentration of microbes (Enterics [7]; pH 5.0, Day 2): >6 log base 10 | concentration of microbes (Enterics [7]; pH 5.0, Week 1): >6 log base 10 | concentration of microbes (Enterics [7]; pH 5.0, Week 3): <10 colony forming units | concentration of microbes (Enterics [7]; pH 5.0, Week 4): <10 colony forming units | antimicrobial activity against Mold, in words (Mold): very poor level of activity | concentration of microbes (Mold; pH 3.0, Day 0): 5.2 log base 10 | concentration of microbes (Mold; pH 3.0, Day 2): <10 colony forming units | concentration of microbes (Mold; pH 3.0, Week 1): <10 colony forming units | concentration of microbes (Mold; pH 3.0, Week 2): <10 colony forming units | concentration of microbes (Mold; pH 3.0, Week 3): <10 colony forming units | concentration of microbes (Mold; pH 3.0, Week 4): <10 colony forming units | concentration of microbes (Mold; pH 4.0, Day 0): 5.2 log base 10 | concentration of microbes (Mold; pH 4.0, Day 2): 1.6 log base 10 | concentration of microbes (Mold; pH 4.0, Week 1): <10 colony forming units | concentration of microbes (Mold; pH 4.0, Week 2): <10 colony forming units | concentration of microbes (Mold; pH 4.0, Week 3): <10 colony forming units | concentration of microbes (Mold; pH 4.0, Week 4): <10 colony forming units | concentration of microbes (Mold; pH 5.0, Day 0): 5.2 log base 10 | concentration of microbes (Mold; pH 5.0, Day 2): 5.2 log base 10 | concentration of microbes (Mold; pH 5.0, Week 1): 5.2 log base 10 | concentration of microbes (Mold; pH 5.0, Week 2): 5.2 log base 10 | concentration of microbes (Mold; pH 5.0, Week 3): 3.0 log base 10 | concentration of microbes (Mold; pH 5.0, Week 4): >5 log base 10 | antimicrobial activity against Enterics, in words (Enterics [8]): does exhibit inhibition | antimicrobial activity against yeast, in words (Yeast [9]): very poor level of activity | concentration of microbes (Yeast [9]; pH 3.0, Day 0): 5.7 log base 10 | concentration of microbes (Yeast [9]; pH 3.0, Day 2): <10 colony forming units | concentration of microbes (Yeast [9]; pH 3.0, Week 1): <10 colony forming units | concentration of microbes (Yeast [9]; pH 3.0, Week 3): <10 colony forming units | concentration of microbes (Yeast [9]; pH 3.0, Week 4): <10 colony forming units | concentration of microbes (Yeast [9]; pH 4.0, Day 0): 5.7 log base 10 | concentration of microbes (Yeast [9]; pH 4.0, Day 2): 3.7 log base 10 | concentration of microbes (Yeast [9]; pH 4.0, Week 2): <10 colony forming units | concentration of microbes (Yeast [9]; pH 4.0, Week 3): <10 colony forming units | concentration of microbes (Yeast [9]; pH 4.0, Week 4): >5.7 log base 10 | concentration of microbes (Yeast [9]; pH 5.0, Day 0): 5.7 log base 10 | concentration of microbes (Yeast [9]; pH 5.0, Day 2): >5.7 log base 10 | concentration of microbes (Yeast [9]; pH 5.0, Week 1): >5.7 log base 10 | concentration of microbes (Yeast [9]; pH 5.0, Week 4): >5.7 log base 10
